Molecular target: Kappa-type opioid receptor (Homo sapiens, UniProt P41145)
Assay: Displacement of [3H]-U69593 from human kappa opioid receptor expressed in U2OS cells by radioligand binding assay

Chain of Kappa-type opioid receptor (P41145 whole entry): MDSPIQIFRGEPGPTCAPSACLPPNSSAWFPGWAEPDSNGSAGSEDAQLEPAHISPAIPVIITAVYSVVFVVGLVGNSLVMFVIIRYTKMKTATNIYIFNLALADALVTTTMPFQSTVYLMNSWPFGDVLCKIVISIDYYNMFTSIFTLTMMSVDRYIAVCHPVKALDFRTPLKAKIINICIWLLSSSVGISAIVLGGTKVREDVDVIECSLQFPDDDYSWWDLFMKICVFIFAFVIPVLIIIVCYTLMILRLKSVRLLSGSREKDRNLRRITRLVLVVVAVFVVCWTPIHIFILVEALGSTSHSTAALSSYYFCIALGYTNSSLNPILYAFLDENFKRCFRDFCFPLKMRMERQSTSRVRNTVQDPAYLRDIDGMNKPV

C/C=C1/CN2CC[C@@]34C(=Nc5ccccc53)C(C(=O)OC)[C@H]1C[C@H]24 (stereo partly specified)
Ki: 89 nM
